# Assay results reported in patent US11054413B2, “Materials and methods for assaying living cells” (UNIVERSITY OF MARYLAND, COLLEGE PARK, priority 2014, dated 2021).
# Entries after “also recorded” stand apart in the source; their conditions may differ.
# Experiments:
# [1] = tested on: MDA-436 breast tumor cells; assay: Quantitative image analysis of time-dependent McTN metrics and tip tracking (FIG. 36-37); assay type: cell-based, human
# Excerpt: FIG. 36. Quantitative image analysis of time-dependent McTN metrics. A) MDA-436 breast tumor cells that were tethered with a PEM+DOTAP surface coating were imaged for McTNs with confocal microscopy (5 z-slices of 1 μm, max intensity projection shown). A custom MATLAB algorithm was applied to the image data to find the cell periphery (Perimeter trace) and then locate local points of maximum perimeter curvature (McTN Tracker). B) Analyzing cells at 10 s timepoints allows the dynamic movement of McTNs under vehicle-treated conditions to be appreciated (blue lines).
# FIG. 37. Tracking individual McTN tip motion. Applying a particle-tracking algorithm to the McTN tips identified in FIG. 36 allows the movement of individual McTN tips (color-coded) to be followed over time.
# Using breast cancer cell lines, we developed a custom MATLAB algorithm to identify McTN ends (points of local surface curvature maxima on a perimeter trace). Combined with automated identification of the cell body (erosion mask), both the number and lengths of individual McTNs can be defined. Now that we have succeeded in tethering tumor cells to PEM-DOTAP surfaces, it dramatically improves our ability to collect time-lapse confocal imaging without the blurring that occurs with even minor cell drift. […] By comparison, the variance of all three measures is reduced in Taxol-treated cells, reflecting the effect of stabilizing microtubules. Individual McTN tips can also be followed with MATLAB particle tracking to quantitate McTN dynamics (FIG. 37).
# MDA-436 cells = assay: Automated McTN analysis (FIG. 24); assay type: cell-based, human; settings: at least 10 random cells
# Excerpt: FIG. 24. Automated McTN analysis. […] A gradient vector flow snake algorithm was used to define the cell edges and a local curvature maxima effectively identified McTN ends (yellow diamonds). […] This automated cell shape analysis will also enable calculations of average McTN length, curvature, etc. that will yield more multi-dimensional data for McTN studies.
# MDA-MB-436 cells [2] = assay: Real-time McTN imaging of PEM-DOTAP tethered cells with drug treatment (FIG. 29B); assay type: cell-based, human; settings: for McTN formation: PEM-DOTAP tether; for McTN dynamics over time: compared to vehicle control, time-lapse
# Description: FIG. 29. Lipid tethering allows for real-time microtentacle imaging in response to drug treatment and minimizes effects of drift. (A) Microtentacle (arrows) imaging of MDA-MB-436 cells seeded on micro-slides with PEM-no tether (i-iii) and PEM-DOTAP tether (iv-vi). Representative […] slice (i and iv), maximum z-projection of 5 slices at one time point (ii and v), and maximum t-projection after 20 frames (iii and vi) are shown at 60× magnification. (B) Microtentacle (arrow) imaging of MDA-MB-436 cells seeded on micro-slides with PEM-DOTAP tether after treatment with 5 uM colchicine for 15 minutes and 1 μg/ml Taxol for 120 minutes. Maximum intensity z-projections of five […] slices at one time point are shown at 60× magnification. Scale bar represents […]
# MDA-MB-436 cells were trypsinized, spun down, and resuspended in phenol red-free and serum-free DMEM. Cells were seeded on PEM coated micro-slides with 4 bilayers and PEM coated micro-slides with 4 bilayers and the addition of DOTAP (50,000 cells/channel). Cells were incubated for 1 h to allow for tethering. After 1 h, one wash was done where the existing media was gently removed from the bottom port of each channel and fresh media was added to top port. This wash was to ensure only tethered cells were analyzed. After this wash, CellMask orange cell membrane dye was added to each channel to a final concentration of 1:10,000. McTN imaging was done on an Olympus FV100 confocal laser scanning microscope at 60× magnification. Five 1 uM slices and 20 frames at a 10 sec frame rate were taken for at least five image sets for each condition. Colchicine was added to each channel at a final concentration of 5 uM and cells were imaged after 15 minutes. Taxol was added to each channel at final concentration of 1 μg/ml and imaged after 120 minutes. Cells were again imaged with five […] slices and 20 frames at a 10 second frame rate.
# Patient-derived cells = assay: McTN and stem cell responses of patient-derived cells to drugs (Table 2, predicted); assay type: cell-based, human; settings: 30 minutes at the concentration given
# Description: Patient-derived cells are treated with either vehicle (0.1% DMSO) or each of the drugs in Table 2 at the indicated concentration for 30 minutes and then analyzed for McTN incidence.
# MCF-7 cells = assay: Tethering washing, cell retention; assay type: cell-based, human
# Description: (§1) MDA-MB-436 and MCF-7 cells were seeded on PEM coated micro-slides with 4 bilayers and addition of DOPC or DOTAP (50,000 cells/channel). Cells were incubated for 1 h to allow for tethering. To quantify initial cell number, three images per channel were taken for each condition at time 0. After 1 h, existing media was gently removed from the bottom port of each channel and fresh media was added to the top port. Following a wash, three images were taken per channel for each condition using an Olympus CKX41 microscope at 4× magnification. This process was repeated for each wash. The area of the image occupied with cells (as a percent) was quantified using CellProfiler and the average from three images was calculated. The average percentage for each condition was then normalized to the area occupied at time 0.
# MDA-MB-436 cells [3] = assay: Tethering washing, cell retention; assay type: cell-based, human
# Description: as §1
# tumor cells [4] = assay: Retention of tethered cells after formaldehyde crosslinking of DOTAP to PEM (FIG. 38B); assay type: cell-based; settings: DOTAP crosslinked to PEM with formaldehyde vs charge interaction, multiple washes
# Excerpt: FIG. 38. PEM coating for McTN studies.
# We assembled PEMs from alternating layers of polymethacrylic acid (PMA) and polyacrylamide (PAAm) to coat microfluidic channels with very thin (100-1000 Angstroms) multilayers that retain high optical clarity. […] This crosslinking approach enables us to conduct improved imaging, time-dependent drug treatments without causing cell drift, but also illustrates that photo-crosslinking could be used to develop patterned arrays to facilitate tumor cell mechanical measurements and cell fate studies.
# SkBr3 cells [5] = settings: Balzer et al. 2010, see FIG. 4; cited from earlier work
# SkBr3 cells [6] = assay: McTN scoring in detached SkBr3 cells, confocal microscopy for tubulin (FIG. 4); assay type: cell-based; settings: nonmetastatic SkBr3 cells
# Excerpt: FIG. 4. Targeting cell division can increase McTNs. […] (Bars=mean±S.D from 3 expts. with McTNs scored blindly).
# CTCs = settings: neoadjuvant treatment in advance of surgery; cited from earlier work
# [7] = tested on: stem cell characteristics; settings: Gupta et al. 2009; cited from earlier work
# tumor cells [8] = settings: tumor cells treated with taxol; cited from earlier work
# epithelial cells = settings: Liu et al. 2012; Suprynowicz et al. 2012; cited from earlier work
# [9] = terminal lipid on 4 PMA/PAAm bilayers, successive washes
# [10] = first wash, 4 PMA/PAAm bilayers, 1 h tethering
# [11] = Taxol 1 μg/ml, PEM+DOTAP tethered
# [12] = Taxol, McTN tip particle tracking
structure (smiles),measurement,setting,value
COc1cc2c(c(OC)c1OC)-c1ccc(OC)c(=O)cc1[C@@H](NC(C)=O)CC2 [Colchicine],McTNs,"[1]; Colchicine 50 μM, PEM+DOTAP tethered",completely inhibits McTN generation; also recorded: completely eliminates McTNs
same,average number of McTNs per cell,MDA-436 cells; colchicine 50 μM,significantly reduces the average number of McTNs per cell
same,McTN formation,"MDA-MB-436 cells [2]; colchicine 5 uM, 15 minutes",decreases microtentacles; also recorded: inhibited McTN formation
same,McTN dynamics over time,MDA-MB-436 cells [2]; colchicine,shrinks McTNs and enhances cell blebbing
same,Predicted stemness & McTN effect,Patient-derived cells,Decrease
C=C1C(=O)O[C@@H]2/C=C(\C)CC/C=C(\C)CC[C@@H]12 [Costunolide],Predicted stemness & McTN effect,Patient-derived cells,Decrease
"CCCCCCCC/C=C\CCCCCCCC(=O)OC[C@H](COP(=O)([O-])OCC[N+](C)(C)C)OC(=O)CCCCCCC/C=C\CCCCCCCC [DOPC, 1,2-dioleoyl-sn-glycero-3-phosphocholine]",tethering of tumor cells,MCF-7 cells; [9],unable to effectively tether either type of tumor cells
same,tethering of tumor cells,MDA-MB-436 cells [3]; [9],unable to effectively tether either type of tumor cells
"CCCCCCCC/C=C\CCCCCCCC(=O)OCC(C[N+](C)(C)C)OC(=O)CCCCCCC/C=C\CCCCCCCC (stereo not shown) [DOTAP, 1,2-dioleoyl-3-trimethylammonium-propane]",cell retention,MCF-7 cells; after five washes,15%
same,cell retention,MCF-7 cells; [10],80%
same,cell retention,MDA-MB-436 cells [3]; [10],38%
same,retention of tethered tumor cells,tumor cells [4],dramatically improves retention of tethered tumor cells during multiple washes; also recorded: significantly improves initial tethering efficiency and resistance to washing
CC(=O)O[C@@]12CO[C@@H]1C[C@H](O)[C@@]1(C)C(=O)[C@H](O)C3=C(C)[C@@H](OC(=O)[C@H](O)[C@@H](NC(=O)OC(C)(C)C)c4ccccc4)C[C@@](O)([C@@H](OC(=O)c4ccccc4)[C@H]21)C3(C)C [Docetaxel],Predicted stemness & McTN effect,Patient-derived cells,Increase
O=S(=O)(c1cccc2cnccc12)N1CCCNCC1 [Fasudil],Predicted stemness & McTN effect,Patient-derived cells,Increase
C/C(=C\c1csc(C)n1)[C@@H]1C[C@@H]2O[C@]2(C)CCC[C@H](C)[C@H](O)[C@@H](C)C(=O)C(C)(C)[C@@H](O)CC(=O)N1 [Ixabepilone],Predicted stemness & McTN effect,Patient-derived cells,Increase
C/C1=C\[C@H](C)C[C@H](C)OC(=O)C[C@H](c2ccc(O)cc2)NC(=O)[C@@H](Cc2c(Br)[nH]c3ccccc23)N(C)C(=O)[C@H](C)NC(=O)[C@@H](C)C1 [Jasplakinolide],McTNs,SkBr3 cells [5],strongly promote McTNs
same,levels of McTNs,SkBr3 cells [6]; Jas 500 nM,increases levels of McTNs dramatically
same,Predicted stemness & McTN effect,Patient-derived cells,Decrease
O=S(=O)(c1cccc2c(I)cccc12)N1CCCNCC1 [ML-7],Predicted stemness & McTN effect,Patient-derived cells,Decrease
CC(=O)O[C@H]1C(=O)[C@@]2(C)[C@H]([C@H](OC(=O)c3ccccc3)[C@]3(O)C[C@H](OC(=O)[C@H](O)[C@@H](NC(=O)c4ccccc4)c4ccccc4)C(C)=C1C3(C)C)[C@]1(OC(C)=O)CO[C@@H]1C[C@@H]2O [Paclitaxel],range of McTN measurements and variance of all metrics,"[1]; Taxol 1 μg/ml, 10 s timepoints",reduced; also recorded: strongly reduces the range of McTN measurements and the variance of all metrics
same,McTN length,[1]; [11],increases
same,number of McTNs per cell >4 μm from cell periphery (McTN number),[1]; [11],increases the number of McTNs per cell
same,McTN persistence (area over which a McTN moves),[1]; [12],make McTNs more persistent
same,average McTN speed,[1]; [12],reduce average McTN speed
same,average number of McTNs per cell,MDA-436 cells; paclitaxel 1 μM,"increases McTNs, but this does not reach significance"
same,McTNs,SkBr3 cells [5],strongly promote McTNs
same,McTN formation,"MDA-MB-436 cells [2]; Taxol 1 μg/ml, 120 minutes",enhances McTNs; also recorded: enhanced McTN formation
same,McTN dynamics over time,MDA-MB-436 cells [2]; taxol,hyperstabilizes McTNs dramatically decreasing their dynamics
same,levels of McTNs,SkBr3 cells [6]; Paclitaxel-Taxol 1.2 μM,increases levels of McTNs dramatically
same,Predicted stemness & McTN effect,Patient-derived cells,Increase
same,increase of CTCs,CTCs,more than 1000 fold
same,stem cell characteristics and tumor metastasis,[7],increases stem cell characteristics and even tumor metastasis
same,lung trapping of tumor cells,tumor cells [8],greater lung trapping of tumor cells
CN(C)S(=O)(=O)c1ccc2c(c1)/C(=C/c1cc3c([nH]1)CCCC3)C(=O)N2 [SU6656],Predicted stemness & McTN effect,Patient-derived cells,Increase
CC[C@]1(O)C[C@@H]2CN(CCc3c([nH]c4ccccc34)[C@@](C(=O)OC)(c3cc4c(cc3OC)N(C)[C@H]3[C@@](O)(C(=O)OC)[C@H](OC(C)=O)[C@]5(CC)C=CCN6CC[C@]43[C@@H]65)C2)C1 [Vinblastine],Predicted stemness & McTN effect,Patient-derived cells,Decrease
C[C@@H](N)[C@H]1CC[C@H](C(=O)Nc2ccncc2)CC1 [Y-27632],Predicted stemness & McTN effect,Patient-derived cells,Increase
same,stem cell conversion,epithelial cells,conversion is occurring
